In PMC8406801, “Naringenin Inhibits Platelet Activation and Arterial Thrombosis Through Inhibition of Phosphoinositide 3-Kinase and Cyclic Nucleotide Signaling” (Frontiers in Pharmacology, 2021):
Where “and” joins values, the source holds several entries; their conditions need not be identical. Identical values can stand only once. Like-named read-outs stand apart in the source and are kept apart here.

How the values were obtained:
[1] = system: washed rat platelets; experiment: Collagen (2 μg/ml)-induced aggregation of washed platelets; assay type: cell-based; details: for Aggregation (%) / Aggregation % of control: washed platelets, single replicates; for Aggregation (%): raw data
Description: Washed rat platelets were prepared as described previously ([Gao et al., 2011]) with a minor modification. Briefly, rat blood was drawn from the abdominal aorta into the siliconized vacutainers containing 1:9 (v/v) 3.8% sodium citrate, supplemented with 100 ng/ml prostaglandin E1 (PGE1) and centrifuged at 300 × g for 6 min at room temperature. Platelet-rich plasma (PRP) was obtained, and after the addition of 100 ng/ml PGE1, platelets were pelleted at 900 × g for 10 min. Platelets were washed once in Tyrode’s buffer (12 mM NaHCO3, 138 mM NaCl, 5.5 mM glucose, 2.9 mM KCl, 2 mM MgCl2, 0.42 mM NaH2PO4, 10 mM HEPES, pH 7.4) containing 100 ng/ml PGE1, and finally resuspended in Tyrode’s buffer containing 0.02 U/mL apyrase to a final concentration of 4×10^8 cells/mL. Washed platelets were preincubated with vehicle (0.4% dimethyl sulfoxide) or various concentrations of naringenin in the presence of 2 mM CaCl2 for 5 min at 37°C, and then further stimulated by ADP (10 μM), thrombin (0.2 U/mL) or collagen (2 μg/ml). The maximum platelet aggregation rate was detected within 5 min with continuous stirring.
FIGURE 1 Effects of naringenin and naringin on platelet aggregation. Chemical structure of naringin (A) and naringenin (B). The effects of naringin (C) or naringenin (D) on PRP were measured following stimulation with 10 μmol/L ADP. Rat washed platelet aggregation performed with or without different concentrations of naringin (E) or naringenin (F) was recorded after stimulation with 10 μmol/L ADP. Similarly, Washed platelet aggregation performed with vehicle or various concentrations of naringenin was recorded after stimulation with 0.2 U/mL thrombin (G) or 2 μg/ml collagen (H). WP represents washed platelets. Data are expressed as means ± SD (n = 6), the level of aggregation obtained at 5 min with vehicle-treated samples (0 μM) was taken as 100%. *p < 0.05, **p < 0.01, ***p < 0.001 compared with the vehicle control group.

[2] = system: PI3Kp110β; experiment: Ex vivo immunoblotting of PI3Kp110β in ADP-stimulated PRP of treated rats; parameters: species or system rat; details: for PI3Kp110β / GAPDH (Fold to Control) / PI3Kp110β / GAPDH (raw data): ex vivo, Figure 8B
Description: Male SD rats were randomly divided into 5 groups with 6 rats in each group. […] Sixty minutes after the last sample treatment, blood was drawn from the abdominal aorta of rats into the siliconized vacutainers containing 1:9 (v/v) 3.8% sodium citrate. The collected blood was centrifuged at 100 × g for 10 min at room temperature to obtain PRP. […] The platelet counts of PRP were adjusted to 4×10^8 cells/mL using PPP. PRP was incubated for 5 min at 37°C and then stimulated by ADP (5 μM). The maximum platelet aggregation rate was determined as mentioned above.
For in vitro platelet aggregation, aliquots of washed platelets were preincubated with vehicle or various concentrations of naringenin for 5 min and stimulated with ADP (10 μmol/L) under stirring at 37°C for 5 min. For ex vivo platelet aggregation, PRP was incubated at 37°C for 5 min and stimulated with ADP (5 μmol/L) under stirring at 37 °C. The platelet aggregation was terminated by adding ethylenediaminetetraacetic acid (EDTA; 10 mM). Total protein was prepared using RIPA lysis buffer and protein content was determined by bicinchoninic acid (BCA) protein assay kit. Equal amounts of platelet proteins (30 μg) were separated on 10% SDS polyacrylamide gel electrophoresis (SDS-PAGE) and then transferred to poly vinylidene difluoride (PVDF) membranes and subjected to western blot. Blots were blocked with TBS-Tween 20 containing 5% BSA and probed with primary antibodies diluted in blocking solution at 4°C overnight followed by incubation with the corresponding HRP secondary antibodies. The protein bands were visualized using enhanced chemiluminescence (ECL).
Blood was collected and PRP was obtained after the last treatment. Platelet aggregation was induced by ADP (5 μmol/L) (A). Data are expressed as means ± SD (n = 6). After ADP stimulation, platelet proteins were then extracted and analyzed by immunoblotting using PI3Kp110β antibody (B) and phospho-specific antibodies such as Akt^Ser473 (C), Akt^Thr308 (D) and ERK1/2^Thr202/Tyr204 (E). Total level of GAPDH was measured on each sample as a loading control. The blots shown are representative of three separate experiments. The relative protein expression levels were quantified by ImageJ 1.47v software. The level of relative protein expression obtained with vehicle control was taken as 1. R represents the level of relative protein expression in resting platelets. Data are expressed as means ± SD (n = 3). *p < 0.05, **p < 0.01, ***p < 0.001 compared with the vehicle control group (Con).
To further investigate the antiplatelet mechanisms of naringenin ex vivo, several signaling molecules such as PI3Kp110β, Akt and ERK were detected. After oral administration of naringenin (200, 400, and 800 mg/kg) to rats for 7 days, rat PRP was prepared and stimulated by ADP (5 μmol/L), and platelets were lysed to determine protein phosphorylation levels using western blot.

## O=C1C[C@@H](c2ccc(O)cc2)Oc2cc(O)cc(O)c21 [Naringenin]
[1]
  IC50: ~236 µM
[1]; Rattus norvegicus, Platelet
  IC50: 236 ± 33.1 µM
[1]; 100 μM
  Aggregation (%): 32.0% and 39.6% and 43.9% and 35.0% and 27.0% and 45.0%
  Aggregation % of control: 75.4 % of control and 93.4 % of control and 103.5 % of control and 82.5 % of control and 63.6 % of control and 106.1 % of control
[1]; 200 μM
  Aggregation (%): 24.1% and 37.0% and 14.9% and 25.4% and 24.3% and 10.0%
  Aggregation % of control: 56.8 % of control and 87.2 % of control and 35.1 % of control and 59.9 % of control and 57.3 % of control and 23.6 % of control
[1]; 400 μM
  Aggregation (%): 10.0% and 14.0% and 11.7% and 7.9% and 15.4% and 4.9%
  Aggregation % of control: 23.6 % of control and 33.0 % of control and 27.6 % of control and 18.6 % of control and 36.3 % of control and 11.6 % of control
[1]; 800 μM
  Aggregation (%): 7.3% and 9.1% and 9.0% and 4.9% and 4.2% and 14.0%
  Aggregation % of control: 17.2 % of control and 21.5 % of control and 21.2 % of control and 11.6 % of control and 9.9 % of control and 33.0 % of control
[2]; naringenin 200mg/kg
  PI3Kp110β / GAPDH (Fold to Control): 0.9111 and 0.9256 and 1.0697
  PI3Kp110β / GAPDH (raw data): 0.4465 and 0.4536 and 0.5241
[2]; naringenin 400mg/kg
  PI3Kp110β / GAPDH (Fold to Control): 0.7818 and 0.8725 and 1.0518
  PI3Kp110β / GAPDH (raw data): 0.3831 and 0.4275 and 0.5154
[2]; naringenin 800mg/kg
  PI3Kp110β / GAPDH (Fold to Control): 0.6930 and 0.8263 and 0.7645
  PI3Kp110β / GAPDH (raw data): 0.3396 and 0.4049 and 0.3746
[2]; rats, oral 200, 400, and 800 mg/kg for 7 days, ADP 5 μmol/L
  expression of PI3Kp110β in rat PRP ex vivo: only modest changes
